{"source": "patent US11517622B2", "about": "“Combination of regorafenib and PD-1/PD-L1(2) inhibitors for treating cancer” (BAYER AKTIENGESELLSCHAFT, priority 2017, dated 2022)", "key": {"[1]": {"tested_on": "MC38 syngeneic tumors", "assay": "Antitumor activity in syngenic murine MC38 CRC model (subcutaneous tumors)", "assay_type": "in vivo, mice", "description": "The combinatorial activity of regorafenib and anti-mouse PD-1 antibody (RMP1-14, Peng et al., Cancer Res., (2012) 72(20), 5209-5218) was investigated in a syngenic murine MC38 CRC model\nMC38 syngeneic tumors were grown subcutaneously in mice and treated with regorafenib and/or anti-mouse PD-1 antibody (RMP1-14) according to the following regimens: […]\nControl animals were treated concomitantly with the regorafenib vehicle (PluronicF68/PEG400/Propylenglycol (15/42,5/42,5+20% aqua)) and a non-binding isotype control antibody (rat IgG2a, clone 2A3). Tumor growth was monitored by caliper measurement and the tumor area was calculated using the formula a×b where a and b are the long and short diameters of the tumor, respectively. Tumor weights were measured after completion of the study. Tumor vs control (T/C) was calculated using vehicle treated animals as reference."}, "[2]": {"tested_on": "CT26 syngeneic tumors", "assay": "Liver metastases in syngenic murine CT26 CRC model (orthotopic tumors)", "assay_type": "in vivo, mice", "description": "The combinatorial activity of regorafenib and anti-mouse PD-1 antibody (RMP1-14, Peng et al., Cancer Res., (2012) 72(20), 5209-5218) was investigated in a syngenic murine CT26 CRC model\nCT26 syngeneic tumors were grown orthotopically in mice (Abou-Elkacem et al., Mol Cancer Ther. 2013 July; 12(7):1322-31) and treated with regorafenib and/or anti-mouse PD-1 antibody (RMP1-14) according to the following regimens:\na) regorafenib alone at a dose of 30 mg/kg per day once daily for 10 days as a PluronicF68/PEG400/Propylenglycol/water (12/34/34/20) po (per oral) formulation using the formulation vehicle alone as control or in a combination with an unspecific control antibody given intraperitoneally (i.p.) at a dose of 20 mg/kg in PBS every third day. b) anti-mouse PD-1 antibody (RMP1-14) alone dosed at 20 mg/kg every third day for four times as a PBS i.p. formulation and an unspecific antibody was used as control c) in combination, regorafenib at a dose of 20 mg/kg per day once daily for 10 days as a PluronicF68/PEG400/Propylenglycol/water (/12/34/34/20) p.o. formulation and anti-mouse PD-1 antibody (RMP1-14) dosed at 20 mg/kg every third day for four times as a PBS i.p. formulation,\nMice were sacrificed at the end of treatment or at the end of the observation period and livers were screened macroscopically for metastases on their surface. The number of mice with liver metastases was then related to the total number of mice in the respective study arm."}, "[3]": {"conditions": "d 14 p.i., after treatment, single agent"}, "[4]": {"conditions": "d 25 p.i., observation period after treatment stop at d 14, regorafenib plus control antibody"}}, "data": [{"smiles": "CNC(=O)c1cc(Oc2ccc(NC(=O)Nc3ccc(Cl)c(C(F)(F)F)c3)c(F)c2)ccn1", "note": "[Regorafenib, 4{4-[3-(4-chloro-3-trifluoromethylphenyl)-ureido]-3-fluorophenoxy}-pyridine-2-carboxylic acid methylamide]", "values": [{"measurement": "T/C (area)", "setting": "[1]; regimen a): regorafenib 3 mg/kg po once daily for 15 days plus isotype control 10 mg/kg ip, tumor area vs vehicle", "result": 0.68}, {"measurement": "T/C (weight)", "setting": "[1]; regimen a): regorafenib 3 mg/kg po once daily for 15 days plus isotype control 10 mg/kg ip, tumor weight at study end vs vehicle", "result": 0.64}, {"measurement": "growth of MC38 tumors vs control", "setting": "[1]; single agents", "result": "inhibited the growth of MC38 tumors vs control"}, {"measurement": "# of animals with mets", "setting": "[2]; [3]", "result": 0}, {"measurement": "% animals wirth mets", "setting": "[2]; [3]", "result": 0, "unit": "%"}, {"measurement": "# of animals with mets", "setting": "[2]; [4]", "result": 8}, {"measurement": "% animals wirth mets", "setting": "[2]; [4]", "result": 100, "unit": "%"}]}]}
